Test results as given in paper PMC12042267, “Expanding the Family of Monosubstituted 15-Membered Pyridine-Based Macrocyclic Ligands for Mn(II) Complexation in the Context of MRI” (Inorganic Chemistry, 2025).

Assay: Dissociation kinetics of Mn(II) complexes, transmetalation with Zn(II) (T2 relaxation)
Assay type: physicochemical
Method: The transmetalation reaction of MnL2 and MnL3 (1.4 mM) was monitored in the presence of 10, 20, 30, and 40 mol equiv of Zn(II) ions, by measuring water proton T2 relaxation times (60 MHz) as a function of time at 25 °C and in 0.15 M NaCl, in the pH range 4.9–6.0 (4.9, 5.0, 5.2, 5.5, and 6.0). To control pH, 50 mM N-methyl-piperazine (pH 4.9–5.5) or 50 mM MES (2-(4-morpholino)ethane-sulfonic acid) buffer (pH 5.7–6.0) was used. Transmetalation of MnL2 (0.3 mM) was also investigated in the presence of 10, 20, 30, and 40 mol equiv of Cu(II) ions, by monitoring the UV–vis absorbance at 274.0 nm as a function of time at 25 °C and in 0.15 M NaCl, in the pH range 4.7–5.0 (in 75 mM 1,4-dimethyl piperazine (DMP) buffer). No oxidation of the samples was observed. The program OriginPro 9 was used for the fitting of experimental data.
The dissociation kinetics was followed through monitoring Mn(II) release by water proton T2 measurements, at pH […], in the presence of 10- to 40-fold excess of Zn(II) and through UV–vis measurements in the presence of 10- to 40-fold excess of Cu(II) at pH 4.7–5.0 (only for MnL2). The observed dissociation rate constants, kobs, increase with increasing H^+ ion concentration (Figures 4, left and S20). They remain independent of Zn(II) concentration (Figures S18 and S19), but do show dependence on Cu(II) concentration (Figure S21).
In excess of the exchanging metal ion, the reaction is of pseudo-first order, and the rate is proportional to the total MnL2 or MnL3 concentration (eq 1), where kobs is the pseudo-first-order rate constant. [drawing 4] 1 In general, different dissociation pathways can coexist, implying the participation of protons and/or the exchanging metal ion,[47] as illustrated in Figure 5.
Based on this scheme, the overall rate for either Zn(II) or Cu(II) transmetalation can be given by eq 2, where M = Zn^2+ or Cu^2+ (for clarity, charges of the complexes are omitted). [drawing 5] 2 Here, the first and second terms correspond to the spontaneous dissociation of the nonprotonated and the monoprotonated complexes, respectively, the third term describes the proton-assisted dissociation of the monoprotonated complex, and the last two terms refer to the spontaneous dissociation of the dinuclear complex and metal-assisted dissociation of the monoprotonated MnL2 or MnL3 complex. [MnL]tot describes the total concentration of Mn(II) chelates ([MnL]tot = [MnL] + [MnHL] + [ZnLMn]). Since no obvious Zn(II) dependence (for any of the two systems) was observed, only the spontaneous and proton-assisted dissociation pathways were taken into consideration. Consequently, the observed rate constants can be expressed as in eq 3 with k0 = kMnL, k1 = kMnHL·KMnHL, and k2 = ^HkMnHL·KMnHL. [drawing 6] 3 The kobs rate constants were fitted to eq 3, and the calculated parameters are listed in Table 5 for the Zn(II) exchange. During the fitting procedure, KMnHL was fixed to the value obtained from the pH-potentiometric titrations.

[1] = Zn(II) transmetalation, 25 °C, 0.15 M NaCl, pH 4.9–6.0

| SMILES | dissociation half-life t1/2 (Mn(II) complex, t1/2 = ln 2/kobs calculated for pH 7.4, Zn(II)) [min] | k0 (spontaneous dissociation of the nonprotonated complex) [1] | k2 (proton-assisted dissociation of the monoprotonated complex) [1] |
| --- | --- | --- | --- |
| O.[Mn+2].c1ccc(CN2CCOCCOCCNCc3cccc(n3)C2)nc1 [MnL2] | 10.4 | (1.1 ± 0.3) × 10^–3 s^–1 | (4.5 ± 0.8) × 10^7 M^–2 s^–1 |
| O.[Mn+2].c1cc2nc(c1)CN(Cc1nc3ccccc3[nH]1)CCOCCOCCNC2 [MnL3] |  | (1.9 ± 0.3) × 10^–3 s^–1 |  |
